According to patent US20040024024A1, “Aromatic sulfone hydroxamates and their use as protease inhibitors” (priority 2001, published 2004):

How the values were obtained:
Human recombinant MMP-2 = target: T1, Human recombinant MMP-2 (Homo sapiens, UniProt P08253); assay: In vitro MMP inhibition, IC50 determination (fluorogenic substrate I); format: biochemical
T1 construct: made in house; host or cells: MMP-2-transfected p2AHT2 cells
T1 sequence (P08253 110-660): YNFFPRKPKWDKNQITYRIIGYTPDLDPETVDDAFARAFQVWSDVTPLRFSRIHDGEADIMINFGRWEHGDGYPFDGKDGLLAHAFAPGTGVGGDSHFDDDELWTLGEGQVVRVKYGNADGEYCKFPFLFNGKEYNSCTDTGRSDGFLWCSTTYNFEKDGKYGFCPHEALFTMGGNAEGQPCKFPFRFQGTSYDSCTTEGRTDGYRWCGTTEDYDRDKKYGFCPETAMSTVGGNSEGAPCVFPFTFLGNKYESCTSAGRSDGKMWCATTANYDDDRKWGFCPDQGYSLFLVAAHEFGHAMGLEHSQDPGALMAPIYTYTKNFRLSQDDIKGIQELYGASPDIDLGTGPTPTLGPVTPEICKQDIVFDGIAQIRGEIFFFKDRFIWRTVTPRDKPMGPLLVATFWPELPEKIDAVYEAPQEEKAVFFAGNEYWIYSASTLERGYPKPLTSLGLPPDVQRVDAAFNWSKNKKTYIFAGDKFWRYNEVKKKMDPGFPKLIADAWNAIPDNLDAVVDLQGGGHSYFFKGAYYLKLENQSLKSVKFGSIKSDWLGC
Procedure: (§1) Several hydroxamates and salts thereof were analyzed in in vitro assays to determine their ability to inhibit the MMP cleavage of peptide substrates. Inhibition (Ki) and IC50 constants were calculated from the assayed hydroxamate-MMP interactions.
(§2) Human recombinant MMP-1, MMP-2, MMP-9, MMP-13, and MMP-14 were used in this assay. All enzymes were prepared in Assignee's laboratories following usual laboratory procedures. Protocols for the preparation and use of these enzymes are available in the scientific literature. See, e.g., Enzyme Nomenclature (Academic Press, San Diego, Calif., 1992) (and the citations therein). See also, Frije et al., J. Biol. Chem., 26(24), 16766-73 (1994).
The MMP-2 proenzyme was purified by gelatin Sepharose chromatography from MMP-2-transfected p2AHT2 cells provided by Dr. Gregory Goldberg of Washington University (St. Louis, Mo.).
(§3) All MMPs were activated using 4-aminophenylmercuric acetate (“APMA”, Sigma Chemical, St. Louis, Mo.) or trypsin. MMP-9 also was activated using human recombinant MMP-3 (purified in Assignee's laboratory following standard cloning and purification techniques).
(§4) Two fluorogenic, methoxycoumarin-containing polypeptide substrates were used in the MMP inhibition assays:
(§5) MCA-ProLeuGlyLeuDpaAlaArgNH2 (I)
(§6) Here, “Dpa” is 3-(2,4-dinitrophenyl)-L-2,3-diaminopropionyl group, and “MCA” is 7-methoxycoumarin-4-yl acetyl. Substrate (I) was purchased from Baychem (Redwood City, Calif.), and substrate II was prepared Assignee's laboratory. Substrate I was used in the IC50 determination assays, while substrate II was used in the Ki determination assays. In the absence of MMP inhibitory activity, either substrate is cleaved at the Gly-Leu peptide bond. This cleavage separates the highly fluorogenic peptide from the 2,4-dinitrophenyl quencher, thus resulting in increase of fluorescent intensity.
(§7) The stock solutions of the assayed hydroxamates (or salts thereof) were prepared in 1% dimethyl sulfoxide (DMSO). These stock solutions were diluted in Buffer A (100 mM Tris-HCl, 100 mM NaCl, 10 mM CaCl2, 0.05% polyoxyethylene 23 lauryl ether, pH 7.5) to obtain solutions with different hydroxamate concentrations, i.e., assay solutions with different concentrations of the assayed MMP inhibitory compound. The experiment controls contained the same amount of Buffer A/DMSO as the assayed sample, but contained no hydroxamate (or salt thereof).
(§8) The assays from which the IC50 determinations were made were performed as follows. The MMPs were activated with either trypsin or APMA (4-aminophenylmercuric acetate, Sigma Chemical, St. Louis, Mo.). The assayed hydroxamate samples were, incubated in Microfluorrm White Plates (Dynatech, Chantilly, VA) and analyzed on a Perkin Elmer L550 plate reader (Norwalk, Conn.). The excitation wavelength was 328 nm, and the emission wavelength—415 nm. All samples (assayed hydroxamates and controls) were incubated in separate plates at room temperature in the presence of 4 μM of MMP substrate (I). As stated in the previous paragraph, samples containing varying concentrations of the same assayed hydroxamate were prepared. Inhibition was measured as a reduction in fluorescent intensity as a function of MMP inhibitor concentration.

Human recombinant MMP-13 = target: T2, Human recombinant MMP-13 (Homo sapiens, UniProt P45452); assay: as above; format: biochemical
T2 construct: made in house; host or cells: baculovirus / insect cells
Procedure: as §1, §2
The expressed proenzyme was first purified over a heparin agarose column, and then over a chelating zinc chloride column. The proenzyme was then activated by APMA for use in the assay. Further details on baculovirus expression systems may be found in, for example, Luckow et al., J. Virol., 67, 4566-79 (1993). See also, O'Reilly et al, Baculovirus Expression Vectors: A Laboratory Manual (W. H. Freeman and Co., New York, N.Y., 1992). See also, King et al., The Baculovirus Expression System: A Laboratory Guide (Chapman & Hall, London, England, 1992).
as §3, §4, §5, §6, §7, §8

[1] = value outside parentheses (Ki in parenthesis)

An IC50 (Human recombinant MMP-2; [1]) of 0.1 µM and an IC50 (Human recombinant MMP-13; [1]) of 0.008 µM were found for COc1ccc(OC)c(-c2nnc(CCCOc3ccc(S(=O)(=O)C4(C(=O)NO)CCOCC4)cc3)o2)c1 [Example 291] in this work.

An IC50 (Human recombinant MMP-2; value outside parentheses) of 0.014 µM and an IC50 (Human recombinant MMP-13; value outside parentheses) of 0.0016 µM were found for O=C(Cc1nnn(Cc2ccccc2)n1)NCCOc1ccc(S(=O)(=O)C2(C(=O)NO)CCOCC2)cc1 [Example 565] in this work.

An IC50 (Human recombinant MMP-2; value outside parenthesis) of 0.0182 µM and an IC50 (Human recombinant MMP-13; value outside parenthesis) of 0.0002 µM were found for O=C(NCCCOc1ccc(S(=O)(=O)C2(C(=O)NO)CCOCC2)cc1)c1cc2ccccc2o1 [Example 101] in this work.

An IC50 (Human recombinant MMP-2; value outside parentheses) of 0.324 µM and an IC50 (Human recombinant MMP-13; value outside parentheses) of 0.0104 µM were found for CC(C)Cc1cccc(CCCOc2ccc(S(=O)(=O)C3(C(=O)NO)CCOCC3)cc2)c1 [Example 640] in this work.

An IC50 (Human recombinant MMP-2; value outside parentheses) of 0.0075 µM and an IC50 (Human recombinant MMP-13; value outside parentheses) of 0.0015 µM were found for CCN1CCC(C(=O)NO)(S(=O)(=O)c2ccc(OCCCSc3nc4ccccc4o3)cc2)CC1 [Example 525] in this work.

An IC50 (Human recombinant MMP-2; value outside parenthesis) of 4.78 µM and an IC50 (Human recombinant MMP-13; value outside parenthesis) of 0.0176 µM were found for COc1ccc(C(=O)N(C)CCCOc2ccc(S(=O)(=O)C3(C(=O)NO)CCOCC3)cc2)cc1 [Example 205] in this work.

An IC50 (Human recombinant MMP-2; [1]) of 0.007 µM and an IC50 (Human recombinant MMP-13; [1]) of 0.0015 µM were found for COc1ccc(SC[C@@H](C)COc2ccc(S(=O)(=O)C3(C(=O)NO)CCOCC3)cc2)cc1 [Example 432] in this work.

An IC50 (Human recombinant MMP-2; [1]) of 1.21 µM and an IC50 (Human recombinant MMP-13; [1]) of 0.933 µM were found for COc1ccc(C(=O)NCCNc2ccc(S(=O)(=O)C3(C(=O)NO)CCOCC3)cc2)cc1 [Example 339] in this work.

An IC50 (Human recombinant MMP-2; [1]) of 0.0127 µM and an IC50 (Human recombinant MMP-13; [1]) of 0.0046 µM were found for CC(C)N(Cc1ccc(C(=O)CCCCOc2ccc(S(=O)(=O)C3(C(=O)NO)CCOCC3)cc2)cc1)C(C)C [Example 344] in this work.

An IC50 (Human recombinant MMP-2; [1]) of 0.046 µM and an IC50 (Human recombinant MMP-13; [1]) of 0.0014 µM were found for O=C(NO)C1(S(=O)(=O)c2ccc(OCCCCCc3ccc4ccccc4c3)cc2)CCOCC1 [Example 464] in this work.

An IC50 (Human recombinant MMP-2; value outside parentheses) of 0.822 µM and an IC50 (Human recombinant MMP-13; value outside parentheses) of 0.0275 µM were found for O=C(Cc1ccc(-c2ccc(Cl)cc2)s1)NCCOc1ccc(S(=O)(=O)C2(C(=O)NO)CCOCC2)cc1 [Example 618] in this work.

An IC50 (Human recombinant MMP-2; value outside parenthesis) of 0.333 µM and an IC50 (Human recombinant MMP-13; value outside parenthesis) of 0.017 µM were found for C[C@H]1C(=O)N(CCCOc2ccc(S(=O)(=O)C3(C(=O)NO)CCOCC3)cc2)C(=O)N1c1ccccc1 [Example 177] in this work.

An IC50 (Human recombinant MMP-2; [1]) of 0.235 µM and an IC50 (Human recombinant MMP-13; [1]) of 0.0045 µM were found for N#Cc1cccc(C(=O)NCCCOc2ccc(S(=O)(=O)C3(C(=O)NO)CCOCC3)cc2)c1 [Example 367] in this work.

An IC50 (Human recombinant MMP-2; [1]) of 0.0047 µM and an IC50 (Human recombinant MMP-13; [1]) of 0.009 µM were found for O=C(NO)C1(S(=O)(=O)c2ccc(OCCCCO)cc2)CCOCC1 [Example 451] in this work.

An IC50 (Human recombinant MMP-2; value outside parentheses) of 0.368 µM and an IC50 (Human recombinant MMP-13; value outside parentheses) of 0.0178 µM were found for O=C(NCCNc1ccc(S(=O)(=O)C2(C(=O)NO)CCOCC2)cc1)c1cc2ccccc2o1 [Example 621] in this work.

An IC50 (Human recombinant MMP-2; [1]) of 3.2 µM and an IC50 (Human recombinant MMP-13; [1]) of 1.9 µM were found for C[C@H](COc1ccc(S(=O)(=O)C2(C(=O)NO)CCOCC2)cc1)NC(=O)c1ccc(N(C)C)cc1 [Example 394] in this work.

An IC50 (Human recombinant MMP-2; value outside parenthesis) of 2.72 µM and an IC50 (Human recombinant MMP-13; value outside parenthesis) of 0.203 µM were found for CC(=O)NC(C)(C)CCOc1ccc(S(=O)(=O)C2(C(=O)NO)CCOCC2)cc1 [Example 242] in this work.

An IC50 (Human recombinant MMP-2; [1]) of 4 µM and an IC50 (Human recombinant MMP-13; [1]) of 0.064 µM were found for COc1ccc(OC)c(S(=O)(=O)NCC(CCl)Oc2ccc(S(=O)(=O)C3(C(=O)NO)CCOCC3)cc2)c1 (stereo not shown) [Example 485] in this work.

An IC50 (Human recombinant MMP-2; value outside parenthesis) of 0.237 µM and an IC50 (Human recombinant MMP-13; value outside parenthesis) of 0.0025 µM were found for O=C(NO)C1(S(=O)(=O)c2ccc(OCCCc3nc(-c4ccc(C(F)(F)F)cc4)no3)cc2)CCOCC1 [Example 239] in this work.

An IC50 (Human recombinant MMP-2; value outside parenthesis) of 0.0322 µM and an IC50 (Human recombinant MMP-13; value outside parenthesis) of 0.0114 µM were found for O=C1N(CCCOc2ccc(S(=O)(=O)C3(C(=O)NO)CCOCC3)cc2)CCN1c1ccccc1 [Example 196] in this work.
